Calls of active or inactive are those of the source. No cut-off for these calls is given here.
Key:
[1] = Clearance in beagle dog at 1 mg/kg, iv by LC-MS/MS method; format: ADME, organism-based, Canis lupus familiaris; settings: in vivo
[2] = Drug level in Sprague-Dawley rat at 2 mg/kg, po after 24 hrs by LC-MS/MS method; format: ADME, organism-based; settings: in vivo, read-out: Drug uptake
[3] = Oral bioavailability in Sprague-Dawley rat at 2 mg/kg by LC-MS/MS method; format: ADME, organism-based; settings: in vivo
[4] = Clearance in Sprague-Dawley rat at 2.5 mg/kg, iv by LC-MS/MS method; format: ADME, organism-based; settings: in vivo
[5] = Oral bioavailability in beagle dog at 1 mg/kg by LC-MS/MS method; format: ADME, organism-based, Canis lupus familiaris; settings: in vivo
Canis familiaris [6] = experiment: AUC in beagle dog at 1 mg/kg, po by LC-MS/MS method; format: ADME, organism-based, Canis lupus familiaris; settings: in vivo
Cytochrome P450 3A4 = Cytochrome P450 3A4 (Homo sapiens, UniProt P08684); experiment: Inhibition of CYP3A4 (unknown origin); format: ADME
[7] = Effective half life in Sprague-Dawley rat at 2.5 mg/kg, iv by LC-MS/MS method; format: ADME, organism-based; settings: in vivo, read-out: t1/2eff (converted)
[8] = Effective half life in beagle dog at 1 mg/kg, iv by LC-MS/MS method; format: ADME, organism-based, Canis lupus familiaris; settings: in vivo, read-out: t1/2eff (converted)
[9] = Effective half life in cynomolgus monkey at 1 mg/kg, iv by LC-MS/MS method; format: ADME, organism-based, Macaca fascicularis; settings: in vivo, read-out: t1/2eff (converted)
[10] = Drug level in beagle dog at 1 mg/kg, po after 24 hrs by LC-MS/MS method; format: ADME, organism-based, Canis lupus familiaris; settings: in vivo, read-out: Drug uptake
Cytochrome P450 2C9 = Cytochrome P450 2C9 (Homo sapiens, UniProt P11712); experiment: Inhibition of CYP2C9 (unknown origin); format: ADME
[11] = Clearance in cynomolgus monkey at 1 mg/kg, iv by LC-MS/MS method; format: ADME, organism-based, Macaca fascicularis; settings: in vivo
Homo sapiens = species on record: Homo sapiens; experiment: Inhibition of IKs channel (unknown origin) at 30 uM
Cytochrome P450 2D6 = Cytochrome P450 2D6 (Homo sapiens, UniProt P10635); experiment: Inhibition of CYP2D6 (unknown origin); format: ADME
[12] = Cytotoxicity in human HuH7 replicon cells by MTS assay; format: cell-based, Huh-7
[13] = molecular target: T1, Nuclear receptor subfamily 1 group I member 2 (Homo sapiens, UniProt O75469); experiment: Activation of PXR (unknown origin); format: ADME
T1 sequence (O75469 whole entry): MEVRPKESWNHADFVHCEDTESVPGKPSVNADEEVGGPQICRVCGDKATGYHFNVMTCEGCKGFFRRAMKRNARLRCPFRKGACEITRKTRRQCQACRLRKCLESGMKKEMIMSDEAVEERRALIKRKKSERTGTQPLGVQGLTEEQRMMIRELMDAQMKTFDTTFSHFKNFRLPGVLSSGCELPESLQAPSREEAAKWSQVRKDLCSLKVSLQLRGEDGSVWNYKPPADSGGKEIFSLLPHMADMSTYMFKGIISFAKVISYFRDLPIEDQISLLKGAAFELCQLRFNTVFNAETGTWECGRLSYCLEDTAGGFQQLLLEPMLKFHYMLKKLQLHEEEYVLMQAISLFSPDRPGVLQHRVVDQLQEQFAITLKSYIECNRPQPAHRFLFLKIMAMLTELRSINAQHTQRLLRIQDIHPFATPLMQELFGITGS

Rattus norvegicus = experiment: AUC in Sprague-Dawley rat at 2 mg/kg, po by LC-MS/MS method; format: ADME, organism-based; settings: in vivo
[14] = molecular target: T2, PXR (Nuclear receptor subfamily 1 group I member 2) (Homo sapiens, UniProt O75469); experiment: Activation of PXR (unknown origin) relative to rifampicin; format: ADME; settings: read-out: FC
T2 sequence (O75469 whole entry): T1 sequence (O75469 whole entry)

[15] = Oral bioavailability in beagle dog at 2 mg/kg by LC-MS/MS method; format: ADME, organism-based, Canis lupus familiaris; settings: in vivo
Canis familiaris [16] = experiment: AUC in beagle dog at 2 mg/kg, po by LC-MS/MS method; format: ADME, organism-based, Canis lupus familiaris; settings: in vivo
[17] = Oral bioavailability in Sprague-Dawley rat at 5 mg/kg by LC-MS/MS method; format: ADME, organism-based; settings: in vivo
[18] = Drug level in cynomolgus monkey at 2 mg/kg, po after 24 hrs by LC-MS/MS method; format: ADME, organism-based, Macaca fascicularis; settings: in vivo, read-out: Drug uptake
[19] = Oral bioavailability in cynomolgus monkey at 2 mg/kg by LC-MS/MS method; format: ADME, organism-based, Macaca fascicularis; settings: in vivo
[20] = Drug level in beagle dog at 2 mg/kg, po after 24 hrs by LC-MS/MS method; format: ADME, organism-based, Canis lupus familiaris; settings: in vivo, read-out: Drug uptake
[21] = Drug level in Sprague-Dawley rat at 5 mg/kg, po after 24 hrs by LC-MS/MS method; format: ADME, organism-based; settings: in vivo, read-out: Drug uptake
[22] = molecular target: T1, Nuclear receptor subfamily 1 group I member 2; experiment: Activation of PXR in human hepatocytes assessed as induction of […] mRNA expression; format: ADME, cell-based
Cynomolgus monkey = experiment: AUC in cynomolgus monkey at 2 mg/kg, po by LC-MS/MS method; format: ADME, organism-based, Macaca fascicularis; settings: in vivo

Cytochrome P450 3A4, sequence (P08684 whole entry): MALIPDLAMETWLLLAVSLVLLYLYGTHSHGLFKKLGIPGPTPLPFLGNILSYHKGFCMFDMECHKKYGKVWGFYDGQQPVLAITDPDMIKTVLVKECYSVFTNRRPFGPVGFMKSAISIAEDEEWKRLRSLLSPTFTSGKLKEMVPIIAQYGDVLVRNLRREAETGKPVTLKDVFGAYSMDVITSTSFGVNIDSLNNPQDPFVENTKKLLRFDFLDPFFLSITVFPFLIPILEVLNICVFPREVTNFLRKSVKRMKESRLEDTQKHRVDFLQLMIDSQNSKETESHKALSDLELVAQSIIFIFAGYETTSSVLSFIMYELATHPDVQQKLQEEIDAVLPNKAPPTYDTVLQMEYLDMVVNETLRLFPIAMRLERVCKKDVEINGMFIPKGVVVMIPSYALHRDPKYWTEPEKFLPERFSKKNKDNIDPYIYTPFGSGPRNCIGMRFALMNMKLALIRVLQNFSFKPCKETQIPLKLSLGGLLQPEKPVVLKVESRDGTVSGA
Cytochrome P450 2D6, sequence (P10635 whole entry): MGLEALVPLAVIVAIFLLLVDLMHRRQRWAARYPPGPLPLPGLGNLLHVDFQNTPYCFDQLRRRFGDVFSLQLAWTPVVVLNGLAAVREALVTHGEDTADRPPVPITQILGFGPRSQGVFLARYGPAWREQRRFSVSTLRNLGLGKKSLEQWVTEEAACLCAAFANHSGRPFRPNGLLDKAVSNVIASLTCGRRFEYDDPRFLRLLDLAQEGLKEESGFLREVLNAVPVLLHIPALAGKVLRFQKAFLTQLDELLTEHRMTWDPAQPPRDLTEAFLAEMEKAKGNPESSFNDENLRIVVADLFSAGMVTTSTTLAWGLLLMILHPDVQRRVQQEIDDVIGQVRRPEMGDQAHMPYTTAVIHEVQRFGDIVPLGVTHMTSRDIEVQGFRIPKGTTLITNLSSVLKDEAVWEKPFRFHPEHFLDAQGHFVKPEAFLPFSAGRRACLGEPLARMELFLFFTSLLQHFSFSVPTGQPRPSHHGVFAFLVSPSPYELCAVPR
Cytochrome P450 2C9, sequence (P11712 whole entry): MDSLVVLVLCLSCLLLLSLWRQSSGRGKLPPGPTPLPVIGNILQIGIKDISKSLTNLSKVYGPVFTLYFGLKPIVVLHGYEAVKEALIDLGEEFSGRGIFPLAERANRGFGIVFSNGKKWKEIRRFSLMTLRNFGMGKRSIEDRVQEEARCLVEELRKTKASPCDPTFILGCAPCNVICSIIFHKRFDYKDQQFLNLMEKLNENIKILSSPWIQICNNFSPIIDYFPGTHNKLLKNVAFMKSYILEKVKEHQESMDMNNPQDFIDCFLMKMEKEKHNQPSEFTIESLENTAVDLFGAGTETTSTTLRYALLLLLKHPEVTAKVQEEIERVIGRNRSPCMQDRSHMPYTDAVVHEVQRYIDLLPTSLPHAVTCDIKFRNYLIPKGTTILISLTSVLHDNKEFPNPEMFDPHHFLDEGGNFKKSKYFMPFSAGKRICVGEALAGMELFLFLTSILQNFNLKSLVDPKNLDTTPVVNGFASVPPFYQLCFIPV

Structure (SMILES): COC(=O)N[C@H](C(=O)N1CCC[C@H]1c1ncc(-c2ccc(-c3cc4cc(-c5cnc([C@@H]6CCCN6C(=O)[C@@H](NC(=O)OC)C(C)C)[nH]5)ccc4o3)cc2)[nH]1)C(C)C
- clearance [1]: 6.4 mL/min/kg
- concentration at 24 h [2]: 4 nM
- bioavailability [3]: 38%
- clearance [4]: 9.3 mL/min/kg
- bioavailability [5]: 26%
- AUC (Canis familiaris [6]): 1.1 uM.hr/ml
- INH (Cytochrome P450 3A4): > 20 µM
- half-life [7]: 120 min
- half-life [8]: 282 min
- half-life [9]: 180 min
- concentration at 24 h [10]: 4 nM
- INH (Cytochrome P450 2C9): > 20 µM
- clearance [11]: 9.1 mL/min/kg
- inhibition (Homo sapiens): inactive
- INH (Cytochrome P450 2D6): > 20 µM
- CC50 [12]: 7 µM
- Activity [13]: 3 µM
- AUC (Rattus norvegicus): 1.7 uM.hr/ml

Structure (SMILES): COC(=O)N[C@H](C(=O)N1C[Si](C)(C)C[C@H]1c1ncc(-c2ccc(-c3ccc4c(ccc5nc([C@@H]6CC(F)(F)CN6C(=O)[C@@H](NC(=O)OC)C(C)C)[nH]c54)c3)cc2)[nH]1)C(C)C
- clearance [1]: 0.7 mL/min/kg
- fold induction [14]: 0.31
- bioavailability [15]: 47%
- AUC (Canis familiaris [16]): 32 uM.hr/ml
- clearance [4]: 7 mL/min/kg
- bioavailability [17]: 64%
- concentration at 24 h [18]: 273 nM
- bioavailability [19]: 45%
- INH (Cytochrome P450 3A4): > 20 µM
- half-life [7]: 600 min
- concentration at 24 h [20]: 0.4 nM
- half-life [8]: 1800 min
- half-life [9]: 900 min
- concentration at 24 h [21]: 94 nM
- INH (Cytochrome P450 2C9): > 20 µM
- Activity [22]: 0.3 µM
- clearance [11]: 0.7 mL/min/kg
- INH (Cytochrome P450 2D6): > 20 µM
- AUC (Cynomolgus monkey): 26 uM.hr/ml

From ChEMBL document CHEMBL4118125, “MK-8325: A silyl proline-containing NS5A inhibitor with pan-genotype activity for treatment of HCV” (Bioorg Med Chem Lett, 2018)
